Experimental findings from patent publication US20250171438A1 (Agios Pharmaceuticals, Inc., priority 2022, published 2025) are described below.

Each structure is given as a SMILES string.

The target in one assay is T1, human PAH with the R408W mutation (Homo sapiens, UniProt P00439, R408W).
T1 construct: expressed in transfected cells
T1 sequence (P00439 1-452 R408W): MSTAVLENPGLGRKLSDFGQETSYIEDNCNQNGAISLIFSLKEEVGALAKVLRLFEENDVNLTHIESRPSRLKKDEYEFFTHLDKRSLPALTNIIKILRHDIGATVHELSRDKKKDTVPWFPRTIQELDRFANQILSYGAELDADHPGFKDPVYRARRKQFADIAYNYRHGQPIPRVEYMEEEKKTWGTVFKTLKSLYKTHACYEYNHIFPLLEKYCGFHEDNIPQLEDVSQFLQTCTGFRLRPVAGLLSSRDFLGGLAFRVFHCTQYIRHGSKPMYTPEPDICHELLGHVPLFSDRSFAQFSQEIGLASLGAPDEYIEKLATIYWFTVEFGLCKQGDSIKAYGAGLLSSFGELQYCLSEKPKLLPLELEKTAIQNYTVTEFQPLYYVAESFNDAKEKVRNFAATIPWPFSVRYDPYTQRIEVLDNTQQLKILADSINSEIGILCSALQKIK
The experiment in a line: Cell Based Phenylalanine Flux Assay. To be noted: A375 cells expressing human R408W PAH; 24 hrs compound incubation; 13C-Tyrosine by LC-MS; average where tested multiple times; read-out: AC50.
Turning to `O=C(c1cnn(CC(F)F)c1Cl)N1CCc2[nH]cnc2[C@@H]1c1nc2c(F)cccc2s1` [Example 2018, (R)-(5-chloro-1-(2,2-difluoroethyl)-1H-pyrazol-4-yl)(4-(4-fluorobenzo[d]thiazol-2-yl)-6,7-dihydro-1H-imidazo[4,5-c]pyridin-5(4H)-yl)methanone], the half-maximal activity concentration (AC50) was in the range of 1 to 5 µM.

In the case of `O=C(c1nnc(-c2ccccc2)s1)N1CCc2[nH]cnc2[C@@H]1c1nc2ccccc2s1` [Example 1420, (R)-(4-(benzo[d]thiazol-2-yl)-6,7-dihydro-1H-imidazo[4,5-c]pyridin-5(4H)-yl)(5-phenyl-1,3,4-thiadiazol-2-yl)methanone], the AC50 was above 5 µM.

Consider `O=C(c1oc(CN2CCOCC2)nc1C(F)(F)F)N1CCc2[nH]cnc2[C@@H]1c1nc2ccccc2s1` [Example 1628, (R)-(4-(benzo[d]thiazol-2-yl)-6,7-dihydro-1H-imidazo[4,5-c]pyridin-5(4H)-yl)(2-(morpholinomethyl)-4-(trifluoromethyl)oxazol-5-yl)methanone], for which the AC50 is below 0.5 µM. As for `O=C(c1cnn(-c2ccccn2)c1Cl)N1CCc2[nH]cnc2[C@@H]1c1nc2ccccc2s1` [Example 1896, (R)-(4-(benzo[d]thiazol-2-yl)-6,7-dihydro-1H-imidazo[4,5-c]pyridin-5(4H)-yl)(5-chloro-1-(pyridin-2-yl)-1H-pyrazol-4-yl)methanone], the AC50 fell in the range of 1 to 5 µM.

For `COCc1nc(C(F)F)c(C(=O)N2CCc3[nH]cnc3[C@@H]2c2nc3ccccc3s2)o1` [Example 1808, (R)-(4-(benzo[d]thiazol-2-yl)-6,7-dihydro-1H-imidazo[4,5-c]pyridin-5(4H)-yl)(4-(difluoromethyl)-2-(methoxymethyl)oxazol-5-yl)methanone], the AC50 lay in the range of 1 to 5 µM. As to `O=C(c1cnco1)N1CCc2[nH]cnc2[C@@H]1c1nc2ccccc2s1` [Example 1098, (R)-(4-(benzo[d]thiazol-2-yl)-6,7-dihydro-1H-imidazo[4,5-c]pyridin-5(4H)-yl)(oxazol-5-yl)methanone], the AC50 is above 5 µM. For `Cn1nc(C(F)F)cc1C(=O)N1CCc2[nH]cnc2[C@@H]1c1nc2ccccc2s1` [Example 1804, (R)-(4-(benzo[d]thiazol-2-yl)-6,7-dihydro-1H-imidazo[4,5-c]pyridin-5(4H)-yl)(3-(difluoromethyl)-1-methyl-1H-pyrazol-5-yl)methanone], the AC50 lay in the range of 1 to 5 µM. As for `Cn1nccc1C(=O)N1CCc2[nH]cnc2[C@@H]1c1nc2c(F)cccc2s1` [Example 1604, (R)-(4-(4-fluorobenzo[d]thiazol-2-yl)-6,7-dihydro-1H-imidazo[4,5-c]pyridin-5(4H)-yl)(1-methyl-1H-pyrazol-5-yl)methanone], the AC50 is above 5 µM.

As for `O=C(c1ccnn1C1CC1)N1CCc2[nH]cnc2[C@@H]1c1nc2c(F)cccc2s1` [Example 1736, (R)-(1-cyclopropyl-1H-pyrazol-5-yl)(4-(4-fluorobenzo[d]thiazol-2-yl)-6,7-dihydro-1H-imidazo[4,5-c]pyridin-5(4H)-yl)methanone], the AC50 lay in the range of 1 to 5 µM. As to `O=C(c1cnc(N2CCCC2)s1)N1CCc2[nH]cnc2[C@H]1c1nc2ccccc2s1` [Example 1323], the AC50 was below 0.5 µM. As for `Cc1cccc2sc([C@H]3c4nc[nH]c4CCN3C(=O)c3cncs3)nc12` [Example 1306, (R)-(4-(4-methylbenzo[d]thiazol-2-yl)-6,7-dihydro-1H-imidazo[4,5-c]pyridin-5(4H)-yl)(thiazol-5-yl)methanone], the AC50 was 1 to 5 µM. As to `O=C(c1cn[nH]c1Cl)N1CCc2[nH]cnc2[C@@H]1c1nc2ccccc2s1` [Example 2035, (R)-(4-(benzo[d]thiazol-2-yl)-6,7-dihydro-1H-imidazo[4,5-c]pyridin-5(4H)-yl)(5-chloro-1H-pyrazol-4-yl)methanone], the half-maximal activity concentration (AC50) lay in the range of 1 to 5 µM. On to `CN1CCN(c2nc(Br)c(C(=O)N3CCc4[nH]cnc4[C@H]3c3nc4c(F)cccc4s3)o2)CC1` [Example 2031, (S)-(4-bromo-2-(4-methylpiperazin-1-yl)oxazol-5-yl)(4-(4-fluorobenzo[d]thiazol-2-yl)-6,7-dihydro-1H-imidazo[4,5-c]pyridin-5(4H)-yl)methanone], for which the half-maximal activity concentration (AC50) is below 0.5 µM. With `O=C(c1ncn2ccccc12)N1CCc2[nH]cnc2[C@H]1c1nc2cc(F)ccc2s1` [Example 1105, (S)-(4-(5-fluorobenzo[d]thiazol-2-yl)-6,7-dihydro-1H-imidazo[4,5-c]pyridin-5(4H)-yl)(imidazo[1,5-a]pyridin-1-yl)methanone], the AC50 is 0.5 to 1 µM.

In the case of `Cc1nc(-c2ccccc2)c(C(=O)N2CCc3[nH]cnc3[C@H]2c2nc3ccccc3s2)o1` [Example 1520], the AC50 was 0.5 to 1 µM.

`O=C(c1cn[nH]c1C(F)F)N1CCc2[nH]cnc2[C@H]1c1nc2ccccc2s1` [Example 1857]: the AC50 was below 0.5 µM. Still for that read-out and setting: to `O=C(c1nnc(-c2ccn(C(F)F)n2)o1)N1CCc2[nH]cnc2[C@@H]1c1nc2ccccc2s1` [Example 1874, (R)-(4-(benzo[d]thiazol-2-yl)-6,7-dihydro-1H-imidazo[4,5-c]pyridin-5(4H)-yl)(5-(1-(difluoromethyl)-1H-pyrazol-3-yl)-1,3,4-oxadiazol-2-yl)methanone] belongs 1 to 5 µM. On to `Nc1cnc(N2CCc3[nH]cnc3[C@@H]2c2nc3ccccc3s2)nc1` (single isomer, unassigned) [Example 1467], for which the AC50 fell in the range of 1 to 5 µM. For `CC(C)(C)CCC(=O)N1CCc2[nH]cnc2[C@@H]1c1nc2ccccc2[nH]1` [Example 906, (R)-1-(4-(1H-benzo[d]imidazol-2-yl)-6,7-dihydro-1H-imidazo[4,5-c]pyridin-5(4H)-yl)-4,4-dimethylpentan-1-one], the AC50 lay within 1 to 5 µM. On the same count and under the same terms, to `Cc1nnc(C(=O)N2CCc3[nH]cnc3[C@@H]2c2nc3cccc(F)c3s2)s1` [Example 1332, (R)-(4-(7-fluorobenzo[d]thiazol-2-yl)-6,7-dihydro-1H-imidazo[4,5-c]pyridin-5(4H)-yl)(5-methyl-1,3,4-thiadiazol-2-yl)methanone] belongs 1 to 5 µM. With `Cc1ccc2c(C(=O)N3CCc4[nH]cnc4[C@@H]3c3nc4c(F)cccc4s3)cnn2c1` [Example 1174, (R)-(4-(4-fluorobenzo[d]thiazol-2-yl)-6,7-dihydro-1H-imidazo[4,5-c]pyridin-5(4H)-yl)(6-methylpyrazolo[1,5-a]pyridin-3-yl)methanone], the AC50 is 1 to 5 µM.

In the case of `CC(C)(CO)c1nc(C(F)F)c(C(=O)N2CCc3[nH]cnc3[C@@H]2c2nc3c(F)cccc3s2)o1` [Example 2072, (R)-(4-(difluoromethyl)-2-(1-hydroxy-2-methylpropan-2-yl)oxazol-5-yl)(4-(4-fluorobenzo[d]thiazol-2-yl)-6,7-dihydro-1H-imidazo[4,5-c]pyridin-5(4H)-yl)methanone], the AC50 fell in the range of 0.5 to 1 µM.

As for `O=C(c1cnn2cc(F)ccc12)N1CCc2[nH]cnc2[C@@H]1c1nc2c(F)cccc2s1` [Example 1216, (R)-(4-(4-fluorobenzo[d]thiazol-2-yl)-6,7-dihydro-1H-imidazo[4,5-c]pyridin-5(4H)-yl)(6-fluoropyrazolo[1,5-a]pyridin-3-yl)methanone], the AC50 was 1 to 5 µM. As for `Cc1cccc2sc([C@H]3c4nc[nH]c4CCN3C(=O)c3ncnn3C)nc12` [Example 2016, (R)-(1-methyl-1H-1,2,4-triazol-5-yl)(4-(4-methylbenzo[d]thiazol-2-yl)-6,7-dihydro-1H-imidazo[4,5-c]pyridin-5(4H)-yl)methanone], the AC50 was above 5 µM.

As to `O=C(c1cnc(C(F)(F)F)o1)N1CCc2[nH]cnc2[C@H]1c1nc2ccccc2s1` [Example 1347], the AC50 is below 0.5 µM. As to `Cn1cc(C(F)(F)C(=O)N2CCc3[nH]cnc3[C@H]2c2nc3ccccc3s2)cn1` [Example 1555], the AC50 is 1 to 5 µM.

Staying with this assay, now noted: A375 cells expressing human R408W PAH; 24 hrs with compound; 13C-Tyrosine by LC-MS; average where tested multiple times; read-out: AC50.
For `Cc1nnc(C(=O)N2CCc3[nH]cnc3C2c2nc3cc(F)ccc3s2)s1` (stereo not drawn), the AC50 is above 5 µM. Take `Cc1nnc(N2CCc3[nH]cnc3[C@H]2c2nc3ccccc3[nH]2)o1` (single isomer, unassigned): the AC50 was in the range of 1 to 5 µM. `CNC(C)(C)c1nc(C)c(C(=O)N2CCc3[nH]cnc3C2c2nc3c(F)cccc3s2)o1` (stereo not drawn): the AC50 was above 5 µM. Regarding `Cc1nnc(CCC(=O)N2CCc3nc[nH]c3C2c2nc3ccc(F)cc3s2)s1` (stereo not drawn), the AC50 lay in the range of 1 to 5 µM. Take `O=C(c1cnn2cccc(F)c12)N1CCc2[nH]cnc2C1c1nc2ccccc2s1` (stereo not drawn): the AC50 was above 5 µM.

As to `COc1ccn2ncc(C(=O)N3CCc4[nH]cnc4C3c3nc4ccc(Cl)cc4[nH]3)c2c1` (stereo not drawn), the AC50 was above 5 µM. In the case of `COc1ccn2ncc(C(=O)N3CCc4[nH]cnc4C3c3nc4ccc(Br)cc4[nH]3)c2c1` (stereo not drawn), the AC50 was above 5 µM. For `O=C(c1ccon1)N1CCc2[nH]cnc2C1c1nc2ccccc2s1` (stereo not drawn), the half-maximal activity concentration (AC50) was above 5 µM.

Regarding `Cn1nc(CC#N)nc1C(=O)N1CCc2[nH]cnc2C1c1nc2ccccc2s1` (stereo not drawn), the AC50 was above 5 µM. Consider `Cc1nc(-c2ccccn2)oc1C(=O)N1CC2(CC2)c2[nH]cnc2[C@H]1c1nc2ccccc2s1` (single isomer, unassigned), for which the AC50 was 1 to 5 µM.

As to `O=C(C1CCCC1)N1CCc2[nH]cnc2[C@H]1c1nc2ccccc2[nH]1` [(S)-(4-(1H-benzo[d]imidazol-2-yl)-1,4,6,7-tetrahydro-5H-imidazo[4,5-c]pyridin-5-yl)(cyclopentyl)methanone], the AC50 was 1 to 5 µM.

For the compound `CN(C)Cc1nc(C(=O)N2CCc3[nH]cnc3C2c2nc3ccccc3s2)no1` (stereo not drawn), the AC50 was above 5 µM. `O=C(c1nnc(CCC(F)(F)F)o1)N1CCc2[nH]cnc2C1c1nc2ccccc2s1` (stereo not drawn): the AC50 is above 5 µM.
